Test results: article PMC10142028, “Influence of Molecular Structure and Physicochemical Properties of Immunosuppressive Drugs on Micelle Formulation Characteristics and Cutaneous Delivery” (Pharmaceutics, 2023)
Converted amounts (≈) assume the structure as drawn. “Also recorded” adds a separate entry of the source. Read-outs that look alike come from different tables or passages of the source.

Tests used:
skin (porcine or human) = system: skin (porcine or human); set-up: method as in PMID 16176283, PMID 14698574; conditions: independent of skin origin (porcine or human) and formulation composition; cited from earlier work
[1] = Drug solubility in water and in aqueous solution of TPGS; type: physicochemical; conditions: for Improvement of drug water solubility by addition of 50 mg/mL TPGS: TPGS 50 mg/mL solution vs water; for solubility at 24 h: thermodynamic from solid; for Aqueous solubility: in words, measured experimentally
Procedure: The solutions were kept at room temperature during a 24 h period of stirring. The samples were then centrifuged and the supernatant was collected and diluted in ACN prior to a UHPLC-MS/MS analysis. All the samples were prepared in triplicate.

[2] = Drug content determination of micelle formulations (UHPLC-UV); type: physicochemical; conditions: for Drug content of Formulation 5: Formulation 5, corresponds to approximately 2.3 mg/mL; for Water solubility reached by polymeric micelle formulation: corresponding to approximately 4.5 mg/mL
Procedure: Micelle formulations were prepared using the thin-film hydration method. […] The acetone was slowly removed by rotary evaporation (Büchi Vac V-513 Rotavapor®; Flawil, Switzerland) until the formation of a uniform thin-film, which was left under the hood overnight and then hydrated with 4 mL of ultrapure water. After equilibration for 2 h, the micelle solution was centrifuged at 10,000 rpm for 15 min (Eppendorf Centrifuge 5804; Hamburg, Germany) to remove excess drug, and the supernatant was carefully collected.
The micelle formulation was optimized in order to reach a high drug loading. […] The formulation with the highest drug content, which satisfied reproducibility and stability criteria, was chosen for the subsequent in vitro release and skin delivery studies. Drug loading was determined by UHPLC-UV.
The amount of drug loaded in the micelles was quantified by UHPLC-UV. To ensure the complete destruction of the micelles and the release of encapsulated drug, samples were diluted in ACN prior to analysis. (1) Drug contentmgdrug/mLformulation=mass of drug in the formulationmg/volume of the formulationmL (2) Drug loadingmgdrug/gpolymer=drug in the formulationmg mL^−1/copolymer in the formulationg mL^−1 (3) Incorporation efficiency%=mass of drug incorporated in micellesmg/mass of drug introducedmg×100

[3] = Stability of the micelle solution after storage at 4 °C for 5 months; type: physicochemical; conditions: Formulation 6 (target 5 mg/mL), followed for 5 months
Procedure: Stability of the micelle solution was evaluated after storage at 4 °C for 5 months. Drug content and micelle size were determined at a series of time points (day 1, and then after 1, 2, 3, 4, and 5 months).

Porcine ear skin [4] = assay: Skin delivery in vitro under infinite dose conditions and cutaneous biodistribution (Franz diffusion cells); conditions: micelle solution 0.2%, 12 h; for Drug deposition in skin regions (comparison): porcine skin; for Permeation across the skin (concentration, under the limit of quantification): receptor phase
Procedure: (§1) Porcine ear skin was used for skin delivery studies and was supplied by a local abattoir (CARRE; Rolle, CH). Briefly, skin samples were processed with a Zimmer air dermatome (Münsingen, Switzerland) to obtain pieces with a thickness of ∼800 µm. Hair was removed carefully from the skin surface using clippers. Circular disks of 30 mm were then punched out (Berg & Schmid HK 500; Urdorf, Switzerland) and stored at −20 °C until use, for a maximum period of 3 months.
(§2) Porcine skin samples were mounted in Franz diffusion cells (Milian SA; Meyrin, Switzerland) with a formulation contact area of 2 cm^2. In the donor compartment, the optimal micelle solution 0.2% was applied under infinite dose conditions (500 µL/cm^2) during 12 h. The receptor compartment was filled with 10 mL of phosphate buffered saline at pH 7.4 containing 1% BSA. The receiver phase was stirred at 250 rpm and maintained at 32 °C throughout the experiment. […] After the experiment, 1 mL of this phase was withdrawn to quantify drug permeation. Samples were diluted in ACN to precipitate BSA. After centrifugation at 5000 rpm at 4 °C during 15 min, the permeation samples were analysed by UHPLC-MS/MS. Each skin sample was carefully cleaned with a cotton swab and a wash solution to remove the residual formulation from skin surface.
(§3) At the end of the experiment, a small area, 0.8 cm^2, was punched out from the 2 cm^2 skin samples. These skin discs were snap-frozen in isopentane cooled by liquid nitrogen, followed by cryotoming (Thermo Scientific CryoStarTM NX70; Reinach, Switzerland) to obtain two lamellae with a thickness of 20 µm and 19 lamellae with a thickness of 40 μm. […] Drug deposited in each lamella was extracted in 300 µL of ACN overnight with continuous stirring at room temperature. The extraction samples were centrifuged at 5000 rpm for 10 min and diluted prior to UHPLC-MS/MS analysis.

[5] = source not given; cited from earlier work
skin proteins = system: skin proteins; set-up: method as in PMID 18524871; conditions: compared to TAC; cited from earlier work
Porcine ear skin [6] = conditions: pig, 12 h, 0.2 %, pH 7.4
Procedure: as §1, §2, §3

[7] = aqueous solution of TPGS (50 mg/mL), aqueous with cosolvent or surfactant or cyclodextrin, Drug solubility at TPGS concentration (33 mM or 50 mg/mL), room temperature, 24 h
[8] = aqueous solution of TPGS (50 mg/mL), aqueous with cosolvent or surfactant or cyclodextrin, Solubility on simple addition of the drug in the aqueous solution of TPGS, TPGS 50 mg/mL
[9] = water, water, room temperature, 24 h stirring, read-out: Drug solubility in water

SMILES | Permeation across the skin (comparison) (skin (porcine or human)) | Improvement of drug water solubility by addition of 50 mg/mL TPGS [1] [fold] | solubility at 24 h [1, 7] [µM] | solubility at 24 h [1, 8] [µM] | Aqueous solubility [1] | solubility at 24 h [1, 9] [µM] | Drug content of Formulation 5 [2] [mM] | Water solubility reached by polymeric micelle formulation [2] [µM] | Stability of Formulation 6 in terms of drug content [3] | Drug deposition in skin regions (comparison) (Porcine ear skin [4]) | Permeation across the skin (concentration, under the limit of quantification) (Porcine ear skin [4]) [ng/mL] | Ionizable [5] | Affinity/binding to skin components (comparison) (skin proteins) | Solubility on simple addition of the drug in the aqueous solution of TPGS ([1]; TPGS 50 mg/mL) [µM] | Permeation across the skin (concentration, under the limit of quantification) (Porcine ear skin [6]) [ng/mL]
CC[C@@H]1/C=C(\C)C[C@H](C)C[C@H](OC)[C@H]2O[C@@](O)(C(=O)C(=O)N3CCCC[C@H]3C(=O)O[C@H](/C(C)=C/[C@@H]3CC[C@H](Cl)[C@H](OC)C3)[C@H](C)[C@@H](O)CC1=O)[C@H](C)C[C@@H]2OC [PIM, pimecrolimus] | lower than TAC | 1943 | 330 ± 31.2 (≈ 268 µg/mL) | 300 (≈ 243 µg/mL) | Poor | 0.17 ± 0.02 (≈ 0.138 µg/mL) | 2.8 | 5600 | remained stable during the 5 months | high percentage of PIM was delivered in the stratum corneum; also recorded: higher in the viable epidermis in comparison to SIR and TAC; also recorded: significantly higher in the upper region of the skin (20–180 µm) | < 3 | No | stronger affinity with the components of the upper layers of the skin compared to TAC; also recorded: higher capacity-binding to other skin proteins |  | 
C=CC[C@@H]1/C=C(\C)C[C@H](C)C[C@H](OC)[C@H]2O[C@@](O)(C(=O)C(=O)N3CCCC[C@H]3C(=O)O[C@H](/C(C)=C/[C@@H]3CC[C@@H](O)[C@H](OC)C3)[C@H](C)[C@@H](O)CC1=O)[C@H](C)C[C@@H]2OC [TAC, tacrolimus] |  | 3184 | 637 ± 73.5 (≈ 512 µg/mL) | 600 (≈ 482 µg/mL) | Poor | 0.2 ± 0.05 (≈ 0.161 µg/mL) | 2.9 | 5600 | remained stable during the 5 months | large percentage of skin deposition in the dermis | < 3 | No |  |  | 
CO[C@H]1C[C@@H]2CC[C@@H](C)[C@@](O)(O2)C(=O)C(=O)N2CCCC[C@H]2C(=O)O[C@H]([C@H](C)C[C@@H]2CC[C@@H](O)[C@H](OC)C2)CC(=O)[C@H](C)/C=C(\C)[C@@H](O)[C@@H](OC)C(=O)[C@H](C)C[C@H](C)/C=C/C=C/C=C/1C [SIR, sirolimus] |  | 147 | 1210 ± 124 (≈ 1110 µg/mL) |  | Poor | 8.24 ± 0.22 (≈ 7.53 µg/mL) | 2.5 | 4900 | became unstable after 4 months |  |  | No |  | 1200 | < 3
